How the values were obtained:
[1] = ref 77 (4AP), ref 78 (4DMP), ref 79 (PPZ); cited from earlier work
[2] = pKa (base) – pKa (acid)
[3] = physchem; conditions: pH 6.5
Method: Solubility experiments were conducted in sodium phosphate buffer solutions at pH 6.5 and 37 °C to simulate intestinal physiological conditions. For each experiment, an excess crystalline solid was sieved through a 300 μm sieve and introduced into a flask with a screw top containing 100 mL of the medium. The solution was stirred at 200 rpm using a magnetic stir bar for 48 h to reach the equilibrium state. […] After each sampling, the volume of the liquid removed from the suspension was not compensated. The withdrawn suspension was filtered through 0.2 μm nylon filters and diluted prior to high-performance liquid chromatography (HPLC) analysis. The solubility experiment for each crystal form was repeated in triplicate. After the last sample collection, the remaining solid material in the suspension was filtered, dried, and characterized by IR and PXRD.
A C18 HPLC column (YMC-Pack ODS-A column, 4.6 mm × 250 mm, 5 μm) with a flow rate of 1 mL min^–1 was employed, and the column temperature was set at 25 °C. The binary mobile phase consisted of acetonitrile and sodium phosphate buffer (pH 6.5) in a volume ratio of 25:75. The samples were diluted appropriately with the mobile phase, and the absorbance was measured at 347 nm.

[4] = pH <3; cited from earlier work

Row | SMILES | pKa in water (salt former) [1] | ΔpKa for MEL ([2]; hydroxyl group of MEL) | ΔpKa for PRM ([2]; hydroxyl group of PRM) | time to highest solubility / maximum dissolved concentration / equilibrium [3] | degradation at lower pH [4]
1 | Nc1ccncc1 [4AP, 4-aminopyridine] | 9.17[77] | 8.08 | 7.31 |  | 
2 | Cc1cnc(NC(=O)C2=C(O)c3ccccc3S(=O)(=O)N2C)s1 [MEL, meloxicam] |  |  |  | 90 min | significant degradation

Source: PMC9933440 (Crystal Growth & Design, 2022)
